Data from patent publication US9817000B2, “Method for identifying compounds that modulate a T2R taste receptor” (The Regents of the University of California, priority 1999, dated 2017).

Legend:
[1] = target: T1, mT2R5 coupling to gustducin (Mus musculus, UniProt Q9JKT4); test: Tastant-induced GTPγS binding to gustducin with insect cell membranes containing rho-mT2R5; type: biochemical; settings: 1 mM
T1 construct: infectious Bacmid containing rhodopsin tagged mT2R5 (DBA/2-allele) was produced using the Bac-to-Bac system; rhodopsin tag (rho); made in house; host or cells: insect larval cells infected with recombinant Bacmid (Bac-to-Bac baculovirus system); membrane preparation
T1 sequence (Q9JKT4 1-300): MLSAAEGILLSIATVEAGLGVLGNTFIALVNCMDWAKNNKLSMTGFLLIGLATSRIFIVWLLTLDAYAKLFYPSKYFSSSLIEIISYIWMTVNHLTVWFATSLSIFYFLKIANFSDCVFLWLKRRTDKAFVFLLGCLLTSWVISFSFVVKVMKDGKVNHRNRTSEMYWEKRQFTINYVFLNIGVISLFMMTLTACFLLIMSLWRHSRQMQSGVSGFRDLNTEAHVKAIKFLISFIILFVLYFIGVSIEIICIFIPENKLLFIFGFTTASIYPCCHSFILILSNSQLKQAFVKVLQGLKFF
Procedure: To investigate the selectivity of T2R-G-protein coupling, mT2R5 was chosen for study because its activation by cycloheximide recapitulates mouse taste responses. Rho-tagged mT2R5 and gustducin were prepared using a baculovirus expression system. mT2R5-containing membranes were incubated with various purified G-proteins, including gustducin, and measured tastant-induced GTP-γS binding (Hoon et al., Biochem J 309:629-636 (1995)). Specifically, infectious Bacmid containing rhodopsin tagged mT2R5 (DBA/2-allele) was produced using the Bac-to-Bac system (Lifetechnologies, MD). Insect larval cells were infected for 60 h with recombinant Bacmid and membranes were prepared as described previously (Ryba and Tirindelli, J Biol Chem, 270:6757-6767 (1995)). Peripheral proteins were removed by treatment with 8 M urea and membranes were resuspended in 10 mM HEPES pH7.5, 1 mM EDTA and 1 mM DTT. The expression of rho-mT2R5 was assessed by Western blot using mAb B6-30 and quantitated by comparison with known amounts of rhodopsin. Approximately 300 pmol of rho-mT2R5 could be obtained from 2×10^8 infected cells. Gustducin and Gβ1γ8 heterodimers were isolated as described previously (Hoon et al., Biochem J 309:629-636 (1995); Ryba and Tirindelli, J Biol Chem, 270:6757-6767 (1995)). Receptor-catalyzed exchange of GDP for GTPγS on gustducin and other G-protein α-subunits was measured in the presence of 10 nM rho-mT2R5, 100 μM GDP, and 20 μM Gβ1γ8. All measurements were made at 15-minute time points, and reflect the initial rate of GTPγS binding.

mT2R5 = target: T2, mT2R5 (Mus musculus, UniProt Q9JKT4); test: FURA-2 [Ca2+]i imaging in HEK-293 cells expressing Gα15 and rho-mT2R5 (taster, DBA/2 allele); type: cell-based
T2 construct: expressed in transfected cells; host or cells: modified HEK-293 cells (PEAKrapid) expressing Gα15; pEAK10 vector
T2 sequence (Q9JKT4 1-300): T1 sequence (Q9JKT4 1-300)
Source text: (§1) In this system, receptor activation leads to increases in intracellular calcium [Ca2+]i, which can be monitored at the single cell level using the FURA-2 calcium-indicator dye (Tsien et al., Cell Calcium 6:145-157 (1985)). To test and optimize Gα15 coupling, two different GPCRs, a Gαi-coupled μ-opioid receptor (Reisine, Neuropharm. 34:463-472 (1995)) and a Gαq-coupled mGluR1 receptor (Masu et al., Nature 349:760-765 (1991)), were used. Transfection of these receptors into HEK-293 cell produced robust, agonist-selective, and Gα15-dependent Ca^2+ responses (FIG. 1).
(§2) A number of studies have shown that many GPCRs, in particular sensory receptors, require specific “chaperones” for maturation and targeting through the secretory pathway (Baker et al., Embo J 13:4886-4895 (1994); Dwyer et al., Cell 93:455-466 (1998)). Recently, Krautwurst et al. (Cell 95:917-926 (1998)) generated chimeric receptors consisting of the first 20 amino acids of rhodopsin and various rodent olfactory receptors. These were targeted to the plasma membrane and functioned as odorant receptors in HEK-293 cells. To determine whether rhodopsin sequences can also help target T2Rs to the plasma membra, rhodopsin-T2R chimeras (rho-T2Rs) were constructed. […] Similar results were obtained with 11 human and 16 rodent T2Rs (see below). To further enhance the level of T2R expression, rho-T2Rs were placed under the control of a strong EF-1α promoter, and introduced as episomal plasmids into modified HEK-293 cells expressing Gα15 (pEAKrapid cells).
(§3) A bridge overlap PCR extension technique was used to generate rho-T2R chimeras, which contain the first 39 amino acids of bovine rhodopsin in frame with human and rodent T2R coding sequences (Mehta and Singh, Biotechniques 26:1082-1086 (1999). All receptors were cloned into a pEAK10 mammalian expression vector (Edge Biosystems, MD). Modified HEK-293 cells (PEAK^rapid cells; Edge BioSystems, MD) were grown and maintained at 37° C. in UltraCulture medium (Bio Whittaker) supplemented with 5% fetal bovine serum, 100 μg/ml Gentamycin sulphate (Fisher), 1 μg/ml Amphotericin B and 2 mM GlutaMax I (Lifetechnologies). For transfection, cells were seeded onto matrigel coated 24-well culture plates or 35 mm recording chambers. After 24 h at 37° C., cells were washed in OptiMEM medium (Lifetechnologies) and transfected using LipofectAMINE reagent (Lifetechnologies). Transfection efficiencies were estimated by co-transfection of a GFP reporter plasmid, and were typically >70%. Immunofluoresence staining, and activity assays were performed 36-48 h after transfection.
(§4) Transfected cells were washed once in Hank's balanced salt solution with 1 mM sodium pyruvate and 10 mM HEPES, pH 7.4 (assay buffer), and loaded with 2 μM FURA-2 AM (Molecular Probes) for 1 h at room temperature. The loading solution was removed and cells were incubated in 200 μl of assay buffer for 1 h to allow the cleavage of the AM ester. For most experiments, 24-well tissue culture plates containing cells expressing a single rho-T2R were stimulated with 200 μl of a 2× tastant solution (see next section). [Ca^2+]i changes were monitored using a Nikon Diaphot 200 microscope equipped with a 10×/0.5 fluor objective with the TILL imaging system (T.I.L.L Photonics GmbH). Acquisition and analysis of the fluorescence images used TILL-Vision software. Generally, [Ca^2+]i was measured for 80-120 s by sequentially illuminating cells for 200 ms at 340 nm and 380 nm and monitoring the fluorescence emission at 510 nm using a cooled CCD camera. The F340/F380 ratio was analyzed to measure [Ca^2+]i.
(§5) Kinetics of activation and deactivation were measured using a bath perfusion system. Cells were seeded onto a 150 μl microperfusion chamber, and test solutions were pressure-ejected with a picospritzer apparatus (General Valve, Inc.). Flow-rate was adjusted to ensure complete exchange of the bath solution within 4-5 s. […]

hT2R4 = target: T3, hT2R4 (Homo sapiens, UniProt Q9NYW5); test: FURA-2 [Ca2+]i imaging in HEK-293 cells expressing Gα15 and rho-hT2R4; type: cell-based; settings: high concentrations
T3 construct: Full-length hT2Rs were isolated by PCR amplification of genomic DNA; expressed in transfected cells; host or cells: HEK-293 cells (PEAKrapid) expressing Gα15
T3 sequence (Q9NYW5 1-299): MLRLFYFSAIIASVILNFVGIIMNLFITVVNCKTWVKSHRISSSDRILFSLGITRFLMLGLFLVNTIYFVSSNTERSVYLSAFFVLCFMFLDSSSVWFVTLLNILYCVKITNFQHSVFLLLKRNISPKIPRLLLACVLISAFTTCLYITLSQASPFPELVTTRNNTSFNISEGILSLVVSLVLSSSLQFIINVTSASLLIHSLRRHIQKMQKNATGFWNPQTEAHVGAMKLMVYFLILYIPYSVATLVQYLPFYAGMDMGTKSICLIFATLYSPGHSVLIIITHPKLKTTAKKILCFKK
Source text: as §1, §2, §3, §4, §5

mT2R8 = target: T4, mT2R8 (Mus musculus, UniProt Q9JKT3); test: FURA-2 [Ca2+]i imaging in HEK-293 cells expressing Gα15 and rho-mT2R8; type: cell-based; settings: high concentrations
T4 construct: expressed in transfected cells; host or cells: HEK-293 cells (PEAKrapid) expressing Gα15
T4 sequence (Q9JKT3 1-297): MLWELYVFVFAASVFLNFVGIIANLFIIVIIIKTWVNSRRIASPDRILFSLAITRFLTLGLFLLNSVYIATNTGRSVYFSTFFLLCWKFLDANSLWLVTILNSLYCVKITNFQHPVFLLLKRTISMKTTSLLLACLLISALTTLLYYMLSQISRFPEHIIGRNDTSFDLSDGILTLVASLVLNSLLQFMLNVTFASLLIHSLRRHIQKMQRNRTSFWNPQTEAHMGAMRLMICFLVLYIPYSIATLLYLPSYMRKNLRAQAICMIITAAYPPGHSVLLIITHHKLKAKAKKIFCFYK
Source text: as §1, §2, §3
as §4, with “For most experiments, 24-well tissue culture plates containing cells expressing a single rho-T2R were stimulated with 200 μl of a 2× tastant solution (see next section).” left out
Kinetics of activation and deactivation were measured using a bath perfusion system. […]

μ opioid receptor = target: T5, μ opioid receptor (Homo sapiens, UniProt P35372); test: FURA-2 [Ca2+]i imaging in HEK-293 cells with Gα15 and μ opioid receptor; type: cell-based; settings: 10 μM
T5 construct: expressed in transfected cells; host or cells: HEK-293 cells containing Gα15
Source text: as §1

mGluR1 receptor = target: T6, mGluR1 receptor (Rattus norvegicus, UniProt P23385); test: FURA-2 [Ca2+]i imaging in HEK-293 cells with Gα15 and mGluR1 receptor; type: cell-based; settings: 20 μM
T6 construct: expressed in transfected cells; host or cells: HEK-293 cells containing Gα15
Source text: as §1

T6 sequence (P23385 19-1199): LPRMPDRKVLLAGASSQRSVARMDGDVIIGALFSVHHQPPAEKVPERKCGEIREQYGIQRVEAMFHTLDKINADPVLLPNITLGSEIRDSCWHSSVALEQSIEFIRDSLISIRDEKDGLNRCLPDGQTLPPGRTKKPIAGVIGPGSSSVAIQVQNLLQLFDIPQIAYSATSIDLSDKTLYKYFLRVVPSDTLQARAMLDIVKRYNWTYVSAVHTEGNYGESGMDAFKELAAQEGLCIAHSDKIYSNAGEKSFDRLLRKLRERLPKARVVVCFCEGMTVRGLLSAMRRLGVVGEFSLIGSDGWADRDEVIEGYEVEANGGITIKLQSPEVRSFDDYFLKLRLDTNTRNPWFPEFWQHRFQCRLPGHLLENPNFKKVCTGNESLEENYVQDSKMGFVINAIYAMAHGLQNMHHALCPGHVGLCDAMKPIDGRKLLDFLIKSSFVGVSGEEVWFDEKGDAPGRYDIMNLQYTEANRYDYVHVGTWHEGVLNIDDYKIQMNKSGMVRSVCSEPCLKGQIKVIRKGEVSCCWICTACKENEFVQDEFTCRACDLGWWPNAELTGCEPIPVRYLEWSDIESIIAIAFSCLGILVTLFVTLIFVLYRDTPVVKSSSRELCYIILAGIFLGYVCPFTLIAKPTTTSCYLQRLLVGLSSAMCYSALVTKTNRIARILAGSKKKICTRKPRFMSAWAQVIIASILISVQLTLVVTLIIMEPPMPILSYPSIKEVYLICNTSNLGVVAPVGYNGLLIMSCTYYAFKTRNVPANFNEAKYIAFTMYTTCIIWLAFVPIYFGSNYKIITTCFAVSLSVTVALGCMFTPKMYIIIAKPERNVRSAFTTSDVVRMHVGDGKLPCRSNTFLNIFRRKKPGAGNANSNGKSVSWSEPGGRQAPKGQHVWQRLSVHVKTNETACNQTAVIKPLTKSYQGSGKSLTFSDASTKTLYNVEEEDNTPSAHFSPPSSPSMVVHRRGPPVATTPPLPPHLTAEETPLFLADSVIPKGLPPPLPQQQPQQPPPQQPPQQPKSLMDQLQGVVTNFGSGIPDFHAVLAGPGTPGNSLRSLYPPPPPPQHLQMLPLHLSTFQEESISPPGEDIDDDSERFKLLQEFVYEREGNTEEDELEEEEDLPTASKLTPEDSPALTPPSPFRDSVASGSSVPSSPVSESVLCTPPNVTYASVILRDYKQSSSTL
T5 sequence (P35372 whole entry, species assumed): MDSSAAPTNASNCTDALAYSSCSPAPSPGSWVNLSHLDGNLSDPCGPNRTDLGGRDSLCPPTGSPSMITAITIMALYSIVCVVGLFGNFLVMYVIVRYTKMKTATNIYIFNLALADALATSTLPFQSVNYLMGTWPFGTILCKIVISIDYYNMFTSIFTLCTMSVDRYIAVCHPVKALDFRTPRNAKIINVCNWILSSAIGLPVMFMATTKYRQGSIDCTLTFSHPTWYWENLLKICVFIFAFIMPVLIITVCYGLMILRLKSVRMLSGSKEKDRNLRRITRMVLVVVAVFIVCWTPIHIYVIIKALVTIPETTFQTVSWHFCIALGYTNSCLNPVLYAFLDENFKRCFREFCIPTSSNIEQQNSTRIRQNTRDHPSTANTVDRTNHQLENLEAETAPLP

**Q.** Which results are given for `CC(=O)OC[C@H]1O[C@@](COC(C)=O)(O[C@H]2O[C@H](COC(C)=O)[C@@H](OC(C)=O)[C@H](OC(C)=O)[C@H]2OC(C)=O)[C@@H](OC(C)=O)[C@@H]1OC(C)=O` [sucrose octaacetate]?
**A.** gustducin activation [1]: not; [Ca2+]i response to tastant (mT2R5; 3 mM): not observed

**Q.** Which results are given for `O=C1NS(=O)(=O)c2ccccc21` [saccharin]?
**A.** gustducin activation [1]: not; [Ca2+]i response to tastant (mT2R5; 10 mM): not observed

**Q.** Which results are given for `CN1[C@@H]2CC[C@H]1C[C@@H](OC(=O)C(CO)c1ccccc1)C2` (stereo partly shown) [atropine]?
**A.** gustducin activation [1]: not; [Ca2+]i response to tastant (mT2R5; 5 mM): not observed

**Q.** How did the gustducin activation [1] turn out when `COc1cc2c(cc1OC)[C@@]13CCN4CC5=CCO[C@H]6CC(=O)N2[C@H]1[C@H]6[C@H]5C[C@H]43` [brucine] was run?
**A.** not

**Q.** And the “[Ca2+]i response to tastant” value (mT2R5; 5 mM)?
**A.** not observed

**Q.** Which gustducin activation [1] does the source give for `Cn1c(=O)c2c(ncn2C)n(C)c1=O` [caffeine] here?
**A.** not

**Q.** With `CCCc1cc(=O)[nH]c(=S)[nH]1` [6-n-propyl thiouracil] as the molecule, how does the “[Ca2+]i response” value (hT2R4) read?
**A.** also responded

**Q.** And the gustducin activation [1]?
**A.** not

**Q.** What about the “[Ca2+]i response to tastant” value (mT2R5; 10 mM) of the same molecule?
**A.** not observed

**Q.** And the receptor activation (mT2R8)?
**A.** activated

**Q.** For `C[C@@H](NC(=O)[C@@H](N)Cc1ccc(O)cc1)C(=O)NCC(=O)N(C)[C@@H](Cc1ccccc1)C(=O)NCCO` [DAMGO], which “[Ca2+]i response” value (μ opioid receptor) is on record?
**A.** increase in [Ca2+]i

**Q.** Which gustducin activation [1] does the source give for `NC(=S)Nc1ccccc1` [phenyl thiocarbamide] here?
**A.** not

**Q.** What about the “[Ca2+]i response to tastant” value (mT2R5; 3 mM) of the same molecule?
**A.** not observed

**Q.** `C=C[C@H]1C[N@@]2CC[C@H]1C[C@H]2[C@H](O)c1ccnc2ccc(OC)cc12` [quinine] was tested. Which gustducin activation [1] did it give?
**A.** not

**Q.** `N[C@@]1(C(=O)O)CC[C@H](C(=O)O)C1` (racemic) [ACPD, trans (±) 1-amino-1,3 cyclopentane dicarboxylic acid] was tested. Which “[Ca2+]i response” value (mGluR1 receptor) did it give?
**A.** increase in [Ca2+]i

**Q.** For `O=C(O)/C=C/c1ccc(O)c(O)c1` [caffeic acid], which “[Ca2+]i response to tastant” value (mT2R5; 2 mM) is on record?
**A.** not observed
